US20240052005A1, “IMPROVED CELL-PENETRATING PEPTIDES AND FUSION PROTEINS” (ANASTASIS BIOTEC LIMITED, priority 2020, published 2024)
Entries after “also recorded” stand apart in the source; their conditions may differ.

Tests used:
Human cell-line SKOV3 = assay: Cell transduction visualised with FITC-conjugated anti-HIS antibody; assay type: cell-based; details: 0.01 mg/mL, 1 hour at 37° C.
Description: Human cell-line SKOV3 was cultured in DMEM media with 10% serum at 37° C., 5% CO2 until 40% confluency in a 96-well culture dish. The media was removed and replaced with 0.1 mL tissue culture-grade PBS and unmodified ANTP, unmodified MAML and ANTP-PEG-2-MAML were added to a final concentration of 0.01 mg/mL. Cell transduction was allowed to proceed for 1 hour at 37° C. Next, the PBS was removed and replaced with DMEM/serum and the cells were grown overnight as above. The transduced cells were then fixed using 1% glutaraldehyde at room temperature for 1 hr and permeabilized using Saponin at 1% concentration for 20 minutes at room temperature. Cells were then washed with PBS and visualized using FITC-conjugated-anti-HIS antibody (Miltenyi Biotech). Imaging was done using a GE-Incell-500 analyser visualizing the green fluorescence of the FITC at around 525 nm. […] This confirms the functionality of the ANTP-PEG-2-MAML protein.

SKOV-3 tumour cells = assay: Intranuclear trafficking into cancer cells, scored by immunofluorescence; assay type: cell-based, human; details: free protein alone
Description: FIG. 2 Intranuclear trafficking of ANTP and ANTP-p21 conjugates into the nuclei of SKOV-3 tumour cells.
Cells, into which the protein had penetrated intranuclearly, were scored positive by immunofluorescence.

ANTP: Antennapedia cell-penetrating peptide, 60 amino acid sequence, recombinant
MAML-His protein seen inside the cell cytosol and cell nucleus (Human cell-line SKOV3): not

p21: free tumour-suppressor protein p21
cellular uptake / translocation to the nuclei (SKOV-3 tumour cells): No cellular uptake; also recorded: did not translocate to the nuclei

B1: MAML: unmodified recombinant MAML protein bearing a HIS-Tag (protein)
chain: LPRHSAVMERLRRRIELCRRHHSTCEARYEAVSPERLELERQHTFALHQRCIQAKAKRAGKH
modifications: also: His-tag, place not given here
MAML-His protein seen inside the cell cytosol and cell nucleus (Human cell-line SKOV3): not
